Measured values published in PMC10071493 (ACS chemical neuroscience, 2021).

Molecular target: MC-I from the bovine heart (mitochondrial complex I) (Bos taurus, UniProt P25708)
Test: microscale thermophoresis, label-free
Format: binding

Sequence of MC-I from the bovine heart (mitochondrial complex I) (P25708 21-464, one chain of several): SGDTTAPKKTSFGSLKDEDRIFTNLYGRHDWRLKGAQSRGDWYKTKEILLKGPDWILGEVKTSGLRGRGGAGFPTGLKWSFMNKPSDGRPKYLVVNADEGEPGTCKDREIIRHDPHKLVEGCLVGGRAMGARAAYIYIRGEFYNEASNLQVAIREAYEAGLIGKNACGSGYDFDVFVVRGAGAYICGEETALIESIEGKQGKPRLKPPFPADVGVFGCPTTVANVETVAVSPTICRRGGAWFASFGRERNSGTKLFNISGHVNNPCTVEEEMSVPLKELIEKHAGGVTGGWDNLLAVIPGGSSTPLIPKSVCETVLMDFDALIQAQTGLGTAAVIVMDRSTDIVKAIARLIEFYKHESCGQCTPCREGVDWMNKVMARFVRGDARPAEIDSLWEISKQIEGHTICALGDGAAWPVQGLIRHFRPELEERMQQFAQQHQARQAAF

**Q.** `COc1ccc2[nH]cc(CCNC(=O)CC(=O)CCc3ccc(F)cc3)c2c1` [compound 2, 5-(4-Fluorophenyl)-N-(2-(5-methoxy-1H-indol-3-yl)ethyl)-3-oxo-pentanamide] was tested. Which Kd did it give?
**A.** ~500 nM
